This is an account of results in ChEMBL document CHEMBL4406824, “Phenolic N-monosubstituted carbamates: Antitubercular and toxicity evaluation of multi-targeting compounds” (Eur J Med Chem, 2019).

Values after ≈ are worked out from the molar mass of the structure shown.

For data set [1], the system named is Mycobacterium kansasii. The experiment in a line: Antimycobacterial activity against Mycobacterium kansasii 235/80 after 21 days. It counts as functional. The note with it: 235/80, 504 h.
In data set [2] the test system is Mycobacterium kansasii. Put plainly: Antimycobacterial activity against Mycobacterium kansasii 6509/96 after 21 days. It counts as functional. The note with it: 6509/96, 504 h.
The test system of data set [3] is Mycobacterium avium. The experiment in a line: Antimycobacterial activity against Mycobacterium avium 330/88 after 21 days. It is filed as functional. The note with it: 330/88, 504 h.
Data set [4] deals with Mycolicibacterium aurum. The experiment in a line: Antimycobacterial activity against Mycobacterium aurum DSM 43999 after 72 hr by resazurin dye based microdilution method. It is filed as functional. The note with it: DSM 43999, 72 h. (In general: Alamar Blue is a resazurin reagent that responds to reducing activity.)
Data set [5] has as its system Mycobacterium kansasii. The experiment in a line: Antimycobacterial activity against Mycobacterium kansasii 235/80 after 7 days. The note with it: 235/80, 168 h. It counts as functional.
Data set [6] has as its system Mycobacterium kansasii. Put plainly: Antimycobacterial activity against Mycobacterium kansasii 6509/96 after 7 days. It is filed as functional. The note with it: 6509/96, 168 h.
Data set [7] has as its system Mycobacterium tuberculosis H37Rv. Put plainly: Inhibition of recombinant Mycobacterium tuberculosis H37Rv ICL1 expressed in Escherichia coli BL21 (DE3) cells at 10 uM using (+)-potassium Ds-threo-isocitrate as substrate by glyoxylate phenyl hydrazone formation assay relative to control.
For data set [8], the system named is HepG2. The experiment in a line: Cytostatic activity against human HepG2 cells preincubated for overnight in serum free medium followed by compound wash out and further incubated for 72 hrs in presence of serum by MTT assay. It counts as ADME, cell-based. Background: Formazan colour is commonly taken as a measure of viable cells.
For data set [9], the system named is Mycobacterium avium. The experiment in a line: Antimycobacterial activity against Mycobacterium avium 330/88 after 14 days. It is filed as functional. The note with it: 330/88, 336 h.
Data set [10] relates to Mycobacterium tuberculosis. It is filed as functional. The note with it: H37Rv 331/88, 336 h.
Data set [11] concerns HepG2. The experiment in a line: Cytotoxicity against human HepG2 cells assessed as reduction in cell viability after overnight incubation by MTT assay. It counts as cell-based.
Data set [12] deals with Mycobacterium kansasii. Put plainly: Antimycobacterial activity against Mycobacterium kansasii 6509/96 after 14 days. It is filed as functional. The note with it: 6509/96, 336 h.
Data set [13] has as its system Mycolicibacterium smegmatis. The experiment in a line: Antimycobacterial activity against Mycobacterium smegmatis DSM 43465 after 120 hr by resazurin dye based microdilution method. The note with it: DSM 43465, 120 h. It counts as functional.
The subject of data set [14] is Mycobacterium tuberculosis. The experiment in a line: Antimycobacterial activity against Mycobacterium tuberculosis H37Ra ITM-M006710 after 48 hr by resazurin dye based microdilution method. The note with it: H37Ra ITM-M006710, 48 h. It counts as functional.
A short description of data set [15]: in vitro. The note with it: human, HepG2 cells.
Description: Selectivity index, ratio of IC50 for human HepG2 cells to MIC for antimycobacterial activity against Mycobacterium tuberculosis H37Rv
Data set [16] has as its system Mycobacterium kansasii. Put plainly: Antimycobacterial activity against Mycobacterium kansasii 235/80 after 14 days. It counts as functional. The note with it: 235/80, 336 h.
The test system of data set [17] is Mycobacterium tuberculosis. It counts as functional. The note with it: H37Rv 331/88, 504 h.

Turning to `O=C(NCc1ccccc1)Oc1ccccc1C(=O)Nc1ccccc1`, the MIC in [1] came out at 250 µM (≈ 86.6 µg/mL); in [2] it was 250 µM (≈ 86.6 µg/mL); in [3], 125 µM (≈ 43.3 µg/mL); in [4], 31.2 µg/mL (≈ 90.2 µM); in data set [5] it was 125 µM (≈ 43.3 µg/mL); in [6] it was 125 µM (≈ 43.3 µg/mL). In addition, the MIC in data set [9] is 125 µM (≈ 43.3 µg/mL); in data set [10], 125 µM (≈ 43.3 µg/mL); in data set [12], 250 µM (≈ 86.6 µg/mL); in [13], 31.2 µg/mL (≈ 90.2 µM); in data set [14], 15.6 µg/mL; in data set [16] it was 250 µM (≈ 86.6 µg/mL). The same compound displayed an MIC in [17] of 125 µM (≈ 43.3 µg/mL). Besides, in data set [7], the inhibition was found to be 8%. The IC50 in data set [8] was 54.3 µM; in data set [11] it was above 125 µM. Also, the selectivity ratio in [15] is above 1.
As to `O=C(NC1CCCCC1)Oc1ccccc1C(=O)Nc1ccccc1`, the MIC came out at 250 µM (≈ 84.6 µg/mL) in data set [1]; 250 µM (≈ 84.6 µg/mL) in data set [2]; 125 µM (≈ 42.3 µg/mL) in [3]; 15.6 µg/mL (≈ 46.2 µM) in data set [4]; 125 µM (≈ 42.3 µg/mL) in data set [5]; 125 µM (≈ 42.3 µg/mL) in data set [6]. In addition, the MIC in data set [9] amounted to 125 µM (≈ 42.3 µg/mL); in data set [10], 125 µM (≈ 42.3 µg/mL); in data set [12], 250 µM (≈ 84.6 µg/mL); in data set [13] it was 15.6 µg/mL (≈ 46.2 µM); in data set [14], 15.6 µg/mL; in data set [16] it was 250 µM (≈ 84.6 µg/mL). Further, in data set [17], the MIC amounted to 125 µM (≈ 42.3 µg/mL). For the same compound, the inhibition in data set [7] came out at 8%. Also, the IC50 was determined as 51.5 µM in data set [8] and 49 µM in [11]. In data set [15], the selectivity ratio stood at 0.4.
On to `O=C(Nc1ccccc1)Oc1ccccc1C(=O)Nc1ccccc1`, for which the MIC turned out to be 250 µM (≈ 83.1 µg/mL) in data set [1]; 250 µM (≈ 83.1 µg/mL) in data set [2]; 125 µM (≈ 41.5 µg/mL) in data set [3]; 31.2 µg/mL (≈ 94 µM) in data set [4]; 125 µM (≈ 41.5 µg/mL) in data set [5]; 125 µM (≈ 41.5 µg/mL) in data set [6]. Moreover, the MIC in data set [9] is 125 µM (≈ 41.5 µg/mL); in data set [10], 125 µM (≈ 41.5 µg/mL); in [12] it was 250 µM (≈ 83.1 µg/mL); in data set [13], 31.2 µg/mL (≈ 94 µM); in data set [14], 31.2 µg/mL; in [16], 250 µM (≈ 83.1 µg/mL). In [17], this compound came in with an MIC of 125 µM (≈ 41.5 µg/mL). Further, the inhibition in [7] turned out to be 5%. Besides, the IC50 came out at 26.8 µM in data set [8] and 57.6 µM in [11]. Further, the selectivity ratio in data set [15] turned out to be 0.5.
In the case of `Oc1ccc(Cl)cc1` [PARACHLOROPHENOL], the MIC in [1] was above 250 µM; in data set [2], above 250 µM; in data set [3], above 250 µM; in data set [5], 250 µM (≈ 32.1 µg/mL); in data set [6] it was 125 µM (≈ 16.1 µg/mL); in data set [9], above 250 µM. Moreover, the MIC in data set [10] is 125 µM (≈ 16.1 µg/mL); in [12], 250 µM (≈ 32.1 µg/mL); in data set [16] it was above 250 µM; in data set [17], 250 µM (≈ 32.1 µg/mL).
`O=C(NC1CCCCC1)Oc1ccc(Cl)cc1`: the MIC in [1] was 1000 µM (≈ 254 µg/mL); in [2], 250 µM (≈ 63.4 µg/mL); in [3], 1000 µM (≈ 254 µg/mL); in data set [4], at least 500 µg/mL; in data set [5], 250 µM (≈ 63.4 µg/mL); in [6] it was 125 µM (≈ 31.7 µg/mL). The MIC in data set [9] was 500 µM (≈ 127 µg/mL); in [10], 500 µM (≈ 127 µg/mL); in data set [12] it was 250 µM (≈ 63.4 µg/mL); in data set [13], at least 500 µg/mL; in data set [14] it was 500 µg/mL; in [16], 500 µM (≈ 127 µg/mL). Further, the MIC in [17] is 500 µM (≈ 127 µg/mL). Further, the inhibition in [7] amounted to 16%. The IC50 in [8] and in data set [11] was above 125 µM each time. In addition, the selectivity ratio in data set [15] was above 0.3.
As to `NNC(=O)c1ccncc1` [ISONIAZID], the MIC in data set [1] is above 250 µM; in data set [2] it was 8 µM (≈ 1.1 µg/mL); in data set [3], above 250 µM; in [4] it was 3.91 µg/mL (≈ 28.5 µM); in data set [5], above 250 µM; in data set [6], 4 µM (≈ 0.549 µg/mL). Besides, the MIC is above 250 µM in data set [9]; 0.5 µM (≈ 0.0686 µg/mL) in data set [10]; 8 µM (≈ 1.1 µg/mL) in data set [12]; 15.6 µg/mL (≈ 114 µM) in data set [13]; 0.91 to 1.82 µM in data set [14]; above 250 µM in data set [16]. Also, the MIC in [17] was found to be 1 µM (≈ 0.137 µg/mL). Moreover, the inhibition in data set [7] came to 0%. Also, the IC50 in [11] is above 250 µM. In [15], the selectivity ratio was above 250.
For `O=C(NCc1ccccc1)Oc1ccc(Cl)cc1`, the MIC in data set [1] came out at 500 µM (≈ 131 µg/mL); in data set [2] it was 500 µM (≈ 131 µg/mL); in data set [3], 500 µM (≈ 131 µg/mL); in data set [4] it was 125 µg/mL (≈ 478 µM); in [5], 125 µM (≈ 32.7 µg/mL); in data set [6], 125 µM (≈ 32.7 µg/mL). The MIC in data set [9] is 500 µM (≈ 131 µg/mL); in data set [10], 125 µM (≈ 32.7 µg/mL); in [12], 250 µM (≈ 65.4 µg/mL); in data set [13], 152 µg/mL (≈ 581 µM); in data set [14], 31.2 µg/mL; in data set [16] it was 250 µM (≈ 65.4 µg/mL). For the same compound, the MIC in data set [17] was determined as 250 µM (≈ 65.4 µg/mL). Moreover, in data set [7], the inhibition was 14%. The IC50 in data set [8] and in [11] was above 125 µM throughout. Further, in [15], the selectivity ratio is above 0.5.

In general, MIC refers to the least concentration at which growth counts as inhibited. Read a low MIC as inhibition by little substance. As usually defined, the inhibition is the relative decrease from the control value, in per cent. The IC50 is the concentration needed to halve the response being measured.
